According to patent US11459318B2, “Pesticidally active pyrrole derivatives” (Syngenta Participations AG, priority 2017, dated 2022):

Tests used:
Format in all cases: in vivo
[1] = test system: Euschistus heros (Neotropical Brown Stink Bug); assay: Euschistus heros (Neotropical Brown Stink Bug): Feeding/contact activity; conditions: 120 h, application rate of 200 ppm, N2 nymphs on soybean leaves, assessed 5 days after infestation, read-out: control (mortality)
Description: Euschistus heros (Neotropical Brown Stink Bug): Feeding/contact activity Soybean leaves on agar in 24-well microtiter plates were sprayed with aqueous test solutions prepared from 10,000 ppm DMSO stock solutions. After drying the leaves were infested with N2 nymphs. The samples were assessed for mortality 5 days after infestation.

[2] = test system: Diabrotica balteata (Corn root worm); assay: Diabrotica balteata (Corn root worm), maize sprouts sprayed, L2 larvae mortality; conditions: 96 h, application rate of 200 ppm, L2 larvae on maize sprouts, assessed 4 days after infestation, read-out: control (mortality)
Description: Diabrotica balteata (Corn root worm):
Maize sprouts placed onto an agar layer in 24-well microtiter plates were treated with aqueous test solutions prepared from 10,000 ppm DMSO stock solutions by spraying. After drying, the plates were infested with L2 larvae (6 to 10 per well). The samples were assessed for mortality 4 days after infestation.

[3] = test system: Myzus persicae (Green peach aphid); assay: Myzus persicae (Green peach aphid): Feeding/Contact activity; conditions: foliar, 144 h, application rate of 200 ppm, aphid population of mixed ages on sunflower leaf discs, assessed 6 days after infestation, read-out: control (mortality)
Description: Myzus persicae (Green peach aphid): Feeding/Contact activity Sunflower leaf discs were placed onto agar in a 24-well microtiter plate and sprayed with aqueous test solutions prepared from 10,000 ppm DMSO stock solutions. After drying, the leaf discs were infested with an aphid population of mixed ages. The samples were assessed for mortality 6 days after infestation.

[4] = test system: Plutella xylostella (Diamond back moth); assay: Plutella xylostella (Diamond back moth): Feeding/contact activity; conditions: 120 h, application rate of 200 ppm, L2 larvae on artificial diet, assessed 5 days after infestation, read-out: control (mortality)
Description: Plutella xylostella (Diamond back moth): Feeding/contact activity
24-well microtiter plates with artificial diet were treated with aqueous test solutions prepared from 10,000 ppm DMSO stock solutions by pipetting. After drying, the plates were infested with L2 larvae (10 to 15 per well). The samples were assessed for mortality 5 days after infestation.

[5] = test system: Spodoptera littoralis (Egyptian cotton leaf worm); assay: Spodoptera littoralis (Egyptian cotton leaf worm): Feeding/contact activity; conditions: foliar, 72 h, application rate of 200 ppm, L1 larvae on cotton leaf discs, assessed 3 days after infestation, read-out: control (mortality)
Description: Spodoptera littoralis (Egyptian cotton leaf worm): Feeding/contact activity Cotton leaf discs were placed onto agar in 24-well microtiter plates and sprayed with aqueous test solutions prepared from 10,000 ppm DMSO stock solutions. After drying the leaf discs were infested with five L1 larvae. The samples were assessed for mortality 3 days after infestation.

[6] = test system: Thrips tabaci (Onion Thrips); assay: Thrips tabaci (Onion Thrips): Feeding/Contact activity; conditions: foliar, 144 h, application rate of 200 ppm, thrips population of mixed ages on sunflower leaf discs, assessed 6 days after infestation, read-out: control (mortality)
Description: Thrips tabaci (Onion Thrips): Feeding/Contact activity
(§1) Sunflower leaf discs were placed on agar in 24-well microtiter plates and sprayed with aqueous test solutions prepared from 10,000 ppm DMSO stock solutions. After drying the leaf discs were infested with a thrips population of mixed ages. The samples were assessed for mortality 6 days after infestation.

[7] = test system: Tetranychus urticae (Two-spotted spider mite); assay: Tetranychus urticae (Two-spotted spider mite): Feeding/contact activity; conditions: foliar, 192 h, application rate of 200 ppm, mite population of mixed ages (mobile stages) on bean leaf discs, assessed 8 days after infestation, read-out: control (mortality)
Description: Tetranychus urticae (Two-spotted spider mite): Feeding/contact activity
as §1, with “Bean” for “Sunflower”, “discs” for “discs were placed”, “were” for “and”, “mite” for “thrips”, “on mixed population (mobile stages) 8” for “6”

Measured: mortality at 200 ppm

N#CC1(NC(=O)c2cc(-c3cnn(-c4c(Br)cc(C(F)(C(F)(F)F)C(F)(F)F)n4CF)c3)ccc2Cl)CC1 [Compound 12, 5-[1-[3-bromo-1-(fluoromethyl)-5-[1,2,2,2-tetrafluoro-1-(trifluoromethyl)ethyl]pyrrol-2-yl]pyrazol-4-yl]-2-chloro-N-(1-cyanocyclopropyl)benzamide]
≥ 80%: all assays above

CCN(C(=O)c1cc(-c2cnn(-c3c(Br)cc(C(F)(C(F)(F)F)C(F)(F)F)n3C)c2)ccc1Cl)C1(C#N)CC1 [Compound 20, 5-[1-[3-bromo-1-methyl-5-[1,2,2,2-tetrafluoro-1-(trifluoromethyl)ethyl]pyrrol-2-yl]pyrazol-4-yl]-2-chloro-N-(1-cyanocyclopropyl)-N-ethyl-benzamide]
≥ 80%: all assays above

CN(C(=O)c1cc(-c2cnn(-c3c(Br)cc(C(F)(C(F)(F)F)C(F)(F)F)n3C)c2)ccc1Cl)C1(C#N)CC1 [Compound 21, 5-[1-[3-bromo-1-methyl-5-[1,2,2,2-tetrafluoro-1-(trifluoromethyl)ethyl]pyrrol-2-yl]pyrazol-4-yl]-2-chloro-N-(1-cyanocyclopropyl)-N-methyl-benzamide]
≥ 80%: all assays above

CC(C)n1c(C(F)(C(F)(F)F)C(F)(F)F)cc(Br)c1-n1cc(-c2ccc(Cl)c(C(=O)NC3(C#N)CC3)c2)cn1 [Compound 24, 5-[1-[3-bromo-1-isopropyl-5-[1,2,2,2-tetrafluoro-1-(trifluoromethyl)ethyl]pyrrol-2-yl]pyrazol-4-yl]-2-chloro-N-(1-cyanocyclopropyl)benzamide]
≥ 80%: all assays above

CC(C)(C)n1c(C(F)(C(F)(F)F)C(F)(F)F)cc(Br)c1-n1cc(-c2ccc(Cl)c(C(=O)NC3(C#N)CC3)c2)cn1 [Compound 25, 5-[1-[3-bromo-1-tert-butyl-5-[1,2,2,2-tetrafluoro-1-(trifluoromethyl)ethyl]pyrrol-2-yl]pyrazol-4-yl]-2-chloro-N-(1-cyanocyclopropyl)benzamide]
≥ 80%: all assays above

N#CC1(NC(=O)c2cc(-c3cnn(-c4c(Br)cc(C(F)(C(F)(F)F)C(F)(F)F)n4CC(F)(F)F)c3)ccc2Cl)CC1 [Compound 26, 5-[1-[3-bromo-5-[1,2,2,2-tetrafluoro-1-(trifluoromethyl)ethyl]-1-(2,2,2-trifluoroethyl)pyrrol-2-yl]pyrazol-4-yl]-2-chloro-N-(1-cyanocyclopropyl)benzamide]
≥ 80%: all assays above

Cn1c(C(F)(C(F)(F)F)C(F)(F)C(F)(F)F)cc(Br)c1-n1cc(-c2ccc(Cl)c(C(=O)NC3(C#N)CC3)c2)cn1 (stereo not shown) [Compound 27, 5-[1-[3-bromo-5-[1,2,2,3,3,3-hexafluoro-1-(trifluoromethyl)propyl]-1-methyl-pyrrol-2-yl]pyrazol-4-yl]-2-chloro-N-(1-cyanocyclopropyl)benzamide]
≥ 80%: all assays above

Cn1c(-n2cc(-c3ccc(Cl)c(C(=O)NC4(C#N)CC4)c3)cn2)ccc1C(F)(C(F)(F)F)C(F)(F)C(F)(F)F (stereo not shown) [Compound 28, 2-chloro-N-(1-cyanocyclopropyl)-5-[1-[5-[1,2,2,3,3,3-hexafluoro-1-(trifluoromethyl)propyl]-1-methyl-pyrrol-2-yl]pyrazol-4-yl]benzamide]
≥ 80%: all assays above

N#CC1(NC(=O)c2cc(-c3cnn(-c4c(Cl)cc(C(F)(C(F)(F)F)C(F)(F)F)n4CF)c3)ccc2Cl)CC1 [Compound 29, 2-chloro-5-[1-[3-chloro-1-(fluoromethyl)-5-[1,2,2,2-tetrafluoro-1-(trifluoromethyl)ethyl]pyrrol-2-yl]pyrazol-4-yl]-N-(1-cyanocyclopropyl)benzamide]
≥ 80%: all assays above

N#CC1(NC(=O)c2cc(-c3cnn(-c4c(Br)cc(C(F)(C(F)(F)F)C(F)(F)F)n4C4CC4)c3)ccc2Cl)CC1 [Compound 42, 5-[1-[3-bromo-1-cyclopropyl-5-[1,2,2,2-tetrafluoro-1-(trifluoromethyl)ethyl]pyrrol-2-yl]pyrazol-4-yl]-2-chloro-N-(1-cyanocyclopropyl)benzamide]
≥ 80%: all assays above
